{
  "source": "patent US20220056019A1",
  "about": "“FARNESOID X RECEPTOR AGONISTS AND USES THEREOF” (Metacrine, Inc., priority 2018, published 2022)",
  "data": [
    {"target": "T1, hFXR (Homo sapiens, UniProt Q96RI1)", "T1 construct": "expressed in transfected cells; host or cells: CV-1 cells", "T1 sequence (Q96RI1 1-486)": "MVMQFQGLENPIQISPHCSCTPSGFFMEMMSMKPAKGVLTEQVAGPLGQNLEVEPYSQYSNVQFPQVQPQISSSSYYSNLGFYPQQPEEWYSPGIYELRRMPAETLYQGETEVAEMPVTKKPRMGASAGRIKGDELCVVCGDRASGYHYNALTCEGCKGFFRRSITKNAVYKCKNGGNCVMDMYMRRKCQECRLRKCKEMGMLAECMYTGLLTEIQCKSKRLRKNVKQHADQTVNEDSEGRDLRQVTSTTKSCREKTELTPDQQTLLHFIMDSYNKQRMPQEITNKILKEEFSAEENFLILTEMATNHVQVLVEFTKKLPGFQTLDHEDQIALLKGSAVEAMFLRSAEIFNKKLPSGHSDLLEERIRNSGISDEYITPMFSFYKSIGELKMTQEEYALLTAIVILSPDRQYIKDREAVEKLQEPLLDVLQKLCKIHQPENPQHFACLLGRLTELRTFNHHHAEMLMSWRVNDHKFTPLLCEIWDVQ", "T1 sequence (P19793 1-462 partner)": "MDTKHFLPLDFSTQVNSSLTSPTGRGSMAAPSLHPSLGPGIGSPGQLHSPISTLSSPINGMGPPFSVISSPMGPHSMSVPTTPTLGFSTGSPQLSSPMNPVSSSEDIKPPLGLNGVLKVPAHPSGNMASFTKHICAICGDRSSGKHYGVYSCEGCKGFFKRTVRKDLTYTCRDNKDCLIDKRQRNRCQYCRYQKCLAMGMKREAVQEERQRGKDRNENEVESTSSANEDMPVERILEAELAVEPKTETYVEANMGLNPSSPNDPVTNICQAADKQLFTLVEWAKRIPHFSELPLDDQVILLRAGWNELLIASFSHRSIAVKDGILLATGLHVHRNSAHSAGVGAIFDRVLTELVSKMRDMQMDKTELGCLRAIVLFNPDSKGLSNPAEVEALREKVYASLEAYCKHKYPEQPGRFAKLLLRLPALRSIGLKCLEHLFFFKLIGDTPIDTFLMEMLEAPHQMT", "assay": "In Vitro FXR Assay (TK): TK-ECRE-luc reporter in transfected CV-1 cells", "format": "cell-based", "settings": "18 hrs incubation, luminescence", "outline": "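CV-1 cells in DMEM with 10% charcoal-stripped FBS were transiently co-transfected with hFXR, hRXR, TK-ECRE-luc reporter and pCMX-YFP plasmids over 18 h at 37 °C. Compounds serially diluted in DMSO were added for 18 h; cells were then lysed and luciferase luminescence measured.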", "units": {"EC50": "nM"}, "values": [
      {"compound": "COc1ccc(C23CCC(CN(c4cncc(-c5cnn(C6(C)CCC6)c5)n4)C(=O)[C@H]4CC[C@H](OC(=O)N5CC(O)C5)CC4)(CC2)CC3)cc1C", "note": "[Compound 25.27, 4-(((4-(4-Methoxy-3-methylphenyl)bicyclo[2.2.2]octan-1-yl)methyl)(6-(1-(1-methylcyclobutyl)-1H-pyrazol-4-yl)pyrazin-2-yl)carbamoyl)cyclohexyl trans-3-hydroxyazetidine-1-carboxylate]", "EC50": "≤ 50"},
      {"compound": "COc1ccc(C23CCC(CN(c4cc(-n5cnc(C6CC6)n5)ccn4)C(=O)[C@H]4CC[C@H](OC(=O)N5CC(O)C5)CC4)(CC2)CC3)cc1C", "note": "[Compound 4.17, 4-((4-(3-Cyclopropyl-1H-t1,2,4-riazol-1-yl)pyridin-2-yl)((4-(4-methoxy-3-methylphenyl)bicyclo [2.2.2]octan-1-yl)methyl)carbamoyl)cyclohexyl 3-hydroxyazetidine-trans-1-carboxylate]", "EC50": "≤ 50"},
      {"compound": "COc1ccc(C23CCC(CN(c4ccc(F)c(-c5cnn(C(C)C)c5)c4)C(=O)[C@H]4CC[C@H](OC(=O)NCCCO)CC4)(CC2)CC3)cc1C", "note": "[Compound 25.08, 4-((4-Fluoro-3-(1-isopropyl-1H-pyrazol-4-yl)phenyl)((4-(4-methoxy-3-methylphenyl)bicyclo[2.2.2]octan-1-yl)methyl)carbamoyl)cyclohexyl trans-(3-hydroxypropyl)carbamate]", "EC50": "≤ 50"},
      {"compound": "COc1ccc([C@H]2CC[C@H](CN(c3cc(-c4cnn(C(C)C)c4)ccn3)C(=O)[C@H]3CC[C@H](OC(=O)NCCCO)CC3)CC2)cc1C", "note": "[Compound 2.19, trans-4-((4-(1-Isopropyl-1H-pyrazol-4-yl)pyridin-2-yl) ((trans-4-(4-methoxy-3-methylphenyl)cyclohexyl)methyl)carbamoyl) cyclohexyl(3-hydroxypropyl)carbamate]", "EC50": "≤ 50"},
      {"compound": "COc1ccc(C23CCC(CN(c4cc(-c5cnn(C(C)C)c5)c(F)cn4)C(=O)[C@H]4CC[C@H](OC(=O)N5CC(CO)C5)CC4)(CC2)CC3)cc1C", "note": "[Compound 25.06, 4-((5-Fluoro-4-(1-isopropyl-1H-pyrazol-4-yl)pyridin-2-yl)((4-(4-methoxy-3-methylphenyl)bicyclo[2.2.2]octan-1-yl)methyl)carbamoyl)cyclohexyl trans-3-(hydroxymethyl)azetidine-1-carboxylate]", "EC50": "≤ 50"},
      {"compound": "COc1ccc(C23CCC(CN(c4cc(-c5cnc(C6CC6)s5)ccn4)C(=O)[C@H]4CC[C@H](OC(=O)N5CC(O)C5)CC4)(CC2)CC3)cc1C", "note": "[Compound 4.01, 4-((4-(2-Cyclopropylthiazol-5-yl)pyridin-2-yl)((4-(4-methoxy-3-methylphenyl)bicyclo[2.2.2]octan-1-yl)methyl)carbamoyl) cyclohexyl 3-hydroxyazetidine-trans-1-carboxylate]", "EC50": "≤ 50"},
      {"compound": "COc1ccc(C23CCC(CN(C(=O)C4CCC(OC(=O)N5CC(O)C5)CC4)c4cc(C5CCCN(C(C)C)C5)ccn4)(CC2)CC3)cc1C", "note": "(stereo not drawn) [Compound 26.18, 4-((4-(1-Isopropylpiperidin-3-yl)pyridin-2-yl)((4-(4-methoxy-3-methylphenyl)bicyclo[2.2.2]octan-1-yl)methyl)carbamoyl)cyclohexyl trans-3-hydroxyazetidine-1-carboxylate]", "EC50": "1000 to 10000"},
      {"compound": "COc1ccc([C@H]2CC[C@H](CN(c3cccc(-c4cnn(C(C)C)c4)c3)C(=O)[C@H]3CC[C@H](OC(=O)NC(C)C)CC3)CC2)cc1C", "note": "[Compound 5.10, trans-4-((3-(1-Isopropyl-1H-pyrazol-4-yl)phenyl)((trans-4-(4-methoxy-3-methylphenyl)cyclohexyl)methyl)carbamoyl)cyclohexyl isopropylcarbamate]", "EC50": "≤ 50"},
      {"compound": "COc1ccc(C23CCC(CN(c4cc(-c5coc(C(C)C)n5)ccn4)C(=O)[C@H]4CC[C@H](OC(=O)NCCO)CC4)(CC2)CC3)cc1C", "note": "[Compound 22, 4-((4-(2-Isopropyloxazol-4-yl)pyridin-2-yl)((4-(4-methoxy-3-methylphenyl)bicyclo[2.2.2]octan-1-yl)methyl)carbamoyl)cyclohexyl (2-hydroxyethyl)trans-carbamate]", "EC50": "≤ 50"},
      {"compound": "COCC(=O)N[C@H]1CC[C@H](C(=O)N(CC23CCC(c4ccc(OC)c(C)c4)(CC2)CC3)c2cc(-c3cnc(C(C)C)s3)ccn2)CC1", "note": "[Compound 9.05, (trans)-N-(4-(2-Isopropylthiazol-5-yl)pyridin-2-yl)-N-((4-(4-methoxy-3-methylphenyl)bicyclo[2.2.2]octan-1-yl)methyl)-4-(2-methoxyacetamido)cyclohexanecar-boxamide]", "EC50": "≤ 50"},
      {"compound": "COc1ccc(C23CCC(CN(c4cc(-c5cnn(C(C)C)c5)ccn4)C(=O)[C@H]4CC[C@H](OC(=O)NCCC(C)(C)O)CC4)(CC2)CC3)cc1C", "note": "[Compound 4.08, 4-((4-(1-Isopropyl-1H-pyrazol-4-yl)pyridin-2-yl)((4-(4-methoxy-3-methylphenyl)bicyclo [2.2.2]octan-1-yl)methyl)carbamoyl)cyclohexyl (3-hydroxy-3-methylbutyl)trans-carbamate]", "EC50": "≤ 50"},
      {"compound": "COc1ccc(C23CCC(CN(c4cc(-c5cnc(C(C)C)s5)ccn4)C(=O)[C@H]4CC[C@H](OC(=O)NCCO)CC4)(CC2)CC3)cc1C", "note": "[Compound 4.36, 4-((4-(2-Isopropylthiazol-5-yl)pyridin-2-yl)((4-(4-methoxy-3-methylphenyl)bicyclo[2.2.2]octan-1-yl)methyl)carbamoyl) cyclohexyl(2-hydroxyethyl)trans-carbamate]", "EC50": "≤ 50"},
      {"compound": "COC(=O)CCC(=O)N[C@H]1CC[C@H](C(=O)N(C[C@H]2CC[C@H](c3ccc(OC)c(C)c3)CC2)c2cccc(-c3cnn(C(C)C)c3)c2)CC1", "note": "[Compound 10.04, Methyl 4-((trans-4-((3-(1-isopropyl-1H-pyrazol-4-yl)phenyl)((trans-4-(4-methoxy-3-methylphenyl)cyclohexyl)methyl)carbamoyl)cyclohexyl)amino)-4-oxobutanoate]", "EC50": "50 to 1000"},
      {"compound": "COc1ccc(C23CCC(CN(c4cc(-n5cc(C(C)C)cn5)ccn4)C(=O)[C@H]4CC[C@H](OC(=O)N5CC(O)C5)CC4)(CC2)CC3)cc1C", "note": "[Compound 23.14, 4-((4-(4-Isopropyl-1H-pyrazol-1-yl)pyridin-2-yl)((4-(4-meth-oxy-3-methylphenyl)bi-cyclo[2.2.2]octan-1-yl)meth-yl)carbamoyl)cyclohexyl trans-3-hydroxyazetidine-1-carboxylate]", "EC50": "≤ 50"},
      {"compound": "CCOC(=O)N[C@H]1CC[C@H](C(=O)N(C[C@H]2CC[C@H](c3ccc(OC)c(C)c3)CC2)c2cccc(-c3cnn(C(C)C)c3)c2)CC1", "note": "[Compound 6.01, Ethyl (trans-4-((3-(1-isopropyl-1H-pyrazol-4-yl)phenyl)((trans-4-(4-methoxy-3-methylphenyl)cyclohexyl)meth-yl)carbamoyl)cyclohexyl)carbamate]", "EC50": "≤ 50"},
      {"compound": "COc1ccc(C23CCC(CN(c4cc(-c5cnn(C(C)C)c5)ccn4)C(=O)[C@H]4CC[C@H](OC(=O)N5CC(C(C)C)C5)CC4)(CC2)CC3)cc1C", "note": "[Compound 23.12, 4-((4-(1-Isopropyl-1H-pyrazol-4-yl)pyridin-2-yl)((4-(4-methoxy-3-methylphenyl)bicyclo[2.2.2]oc-tan-1-yl)methyl)carbamoyl)cyclo-hexyl trans-3-isopropyl-azetidine-1-carboxylate]", "EC50": "≤ 50"},
      {"compound": "COc1ccc(C23CCC(CN(c4cc(-c5coc(C6CC6)n5)ccn4)C(=O)[C@H]4CC[C@H](NC(=O)CO)CC4)(CC2)CC3)cc1C", "note": "[Compound 9.11, (trans)-N-(4-(2-Cyclopropyloxazol-4-yl)pyridin-2-yl)-4-(2-hydroxyacetamido)-N-((4-(4-methoxy-3-methylphenyl)bicyclo[2.2.2]octan-1-yl)methyl)cyclohexanecarboxamide]", "EC50": "≤ 50"},
      {"compound": "COc1ccc([C@H]2CC[C@H](CN(c3cc(-c4cnc(C(C)C)s4)ccn3)C(=O)[C@H]3CC[C@H](OC(=O)N4CCN(C)CC4)CC3)CC2)cc1C", "note": "[Compound 2.40, trans-4-((4-(2-Isopropylthiazol-5-yl)pyridin-2-yl)((trans-4-(4-methoxy-3-methylphenyl)cyclohexyl)methyl)carbamoyl)cyclohexyl 4-methylpiperazine-1-carboxylate]", "EC50": "≤ 50"},
      {"compound": "COc1ccc(C23CCC(CN(c4cc(-c5cnn(C6(C)CCC6)c5)c(F)cn4)C(=O)[C@H]4CC[C@H](OC(=O)N5CC(O)C5)CC4)(CC2)CC3)cc1C", "note": "[Compound 25.18, 4-((5-Fluoro-4-(1-(1-methylcyclobutyl)-1H-pyrazol-4-yl)pyridin-2-yl)((4-(4-methoxy-3-methylphenyl)bicyclo[2.2.2]octan-1-yl)methyl)carbamoyl)cyclohexyl trans-3-hydroxyazetidine-1-carboxylate]", "EC50": "≤ 50"}
    ]}
  ]
}
